Values joined by “and” are separate entries in the source; they are usually repeats but may differ in a detail not shown here. Identical values can stand only once.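 1) Cells in 96-well plates. 2) Compound, 48 h, 5 concentrations. 3) Linear interpolation between surrounding doses. 4) Unreached endpoint = highest concentration. GI50: concentration for 50% inhibition of growth.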 Active and inactive are the calls of the source. No stated cut-off is given here; in the data, active = GI50 up to about 1.1 µM and inactive = higher.
Columns and labels:
Assay in all cases: inhibition of tumour cell growth, NCI panel, 48 h
786-0 = tested on: 786-0
A498 = tested on: A498
A549 = tested on: A549
ACHN = tested on: ACHN
CAKI-1 = tested on: CAKI-1
CCRF-CEM = tested on: CCRF-CEM
COLO 205 = tested on: COLO 205
DU-145 = tested on: DU-145
EKVX = tested on: EKVX
HCC 2998 = tested on: HCC 2998
HCT-116 = tested on: HCT-116
HCT-15 = tested on: HCT-15
HL-60 = tested on: HL-60
HOP-62 = tested on: HOP-62
HT-29 = tested on: HT-29
IGROV-1 = tested on: IGROV-1
KM12 = tested on: KM12
LOX IMVI = tested on: LOX IMVI
M14 = tested on: M14
MCF7 = tested on: MCF7
MDA-MB-231 = tested on: MDA-MB-231
MDA-MB-435 = tested on: MDA-MB-435
MDA-N = tested on: MDA-N
MOLT-4 = tested on: MOLT-4
Malme-3M = tested on: Malme-3M
NCI-H23 = tested on: NCI-H23
NCI-H460 = tested on: NCI-H460
NCI-H522 = tested on: NCI-H522
NCI/ADR-RES = tested on: NCI/ADR-RES
OVCAR-3 = tested on: OVCAR-3
OVCAR-4 = tested on: OVCAR-4
OVCAR-5 = tested on: OVCAR-5
OVCAR-8 = tested on: OVCAR-8
PC-3 = tested on: PC-3
RXF 393 = tested on: RXF 393
SF-268 = tested on: SF-268
SF-295 = tested on: SF-295
SF-539 = tested on: SF-539
SK-MEL-28 = tested on: SK-MEL-28
SK-MEL-2 = tested on: SK-MEL-2
SK-MEL-5 = tested on: SK-MEL-5
SK-OV-3 = tested on: SK-OV-3
SN12C = tested on: SN12C
SNB-19 = tested on: SNB-19
SR = tested on: SR
SW-620 = tested on: SW-620
T47D = tested on: T47D
TK-10 = tested on: TK-10
UACC-257 = tested on: UACC-257
UACC-62 = tested on: UACC-62
HOP-92 = tested on: HOP-92
SNB-75 = tested on: SNB-75
K562 = tested on: K562
NCI-H226 = tested on: NCI-H226
U-251 = tested on: U-251
UO-31 = tested on: UO-31
RPMI-8226 = tested on: RPMI-8226

In the case of `O=C(O)[C@@H]1CCS(=O)(=O)N1`, the GI50 (786-0) is reported as > 100 µM (inactive), the GI50 (A498) is reported as > 100 µM (inactive) and the GI50 (A549) is reported as > 100 µM (inactive). The GI50 (ACHN) was > 100 µM (inactive), the GI50 (CAKI-1) was > 100 µM (inactive) and the GI50 (CCRF-CEM) was > 100 µM (inactive). For the same molecule, the GI50 (COLO 205) was > 100 µM (inactive), the GI50 (DU-145) was > 100 µM (inactive) and the GI50 (EKVX) was > 100 µM (inactive). The GI50 (HCC 2998) was > 100 µM (inactive), the GI50 (HCT-116) was > 100 µM (inactive) and the GI50 (HCT-15) was greater than 100 µM. For the same molecule, the GI50 (HL-60) was > 100 µM (inactive), the GI50 (HOP-62) was > 100 µM (inactive) and the GI50 (HT-29) was > 100 µM (inactive). For the same molecule, the GI50 (IGROV-1) was > 100 µM (inactive), the GI50 (KM12) was > 100 µM (inactive) and the GI50 (LOX IMVI) was > 100 µM (inactive). The GI50 (M14) was > 100 µM (inactive), the GI50 (MCF7) was > 100 µM (inactive) and the GI50 (MDA-MB-231) was > 100 µM (inactive). The GI50 (MDA-MB-435) was > 100 µM (inactive), the GI50 (MDA-N) was > 100 µM (inactive) and the GI50 (MOLT-4) was > 100 µM (inactive). The GI50 (Malme-3M) was > 100 µM (inactive), the GI50 (NCI-H23) was > 100 µM (inactive) and the GI50 (NCI-H460) was > 100 µM (inactive). The GI50 (NCI-H522) was > 100 µM (inactive), the GI50 (NCI/ADR-RES) was > 100 µM (inactive) and the GI50 (OVCAR-3) was > 100 µM (inactive). For the same molecule, the GI50 (OVCAR-4) was > 100 µM (inactive), the GI50 (OVCAR-5) was > 100 µM (inactive) and the GI50 (OVCAR-8) was > 100 µM (inactive). The GI50 (PC-3) was > 100 µM (inactive), the GI50 (RXF 393) was > 100 µM (inactive) and the GI50 (SF-268) was > 100 µM (inactive). The GI50 (SF-295) was > 100 µM (inactive), the GI50 (SF-539) was > 100 µM (inactive) and the GI50 (SK-MEL-28) was > 100 µM (inactive). For the same molecule, the GI50 (SK-MEL-2) was > 100 µM (inactive), the GI50 (SK-MEL-5) was > 100 µM (inactive) and the GI50 (SK-OV-3) was > 100 µM (inactive). The GI50 (SN12C) was > 100 µM (inactive), the GI50 (SNB-19) was > 100 µM (inactive) and the GI50 (SR) was > 100 µM (inactive). For the same molecule, the GI50 (SW-620) was > 100 µM (inactive), the GI50 (T47D) was > 100 µM (inactive) and the GI50 (TK-10) was > 100 µM (inactive). The GI50 (UACC-257) was > 100 µM (inactive) and the GI50 (UACC-62) was > 100 µM (inactive).
`COC(=O)/C=C/c1cc(OC)c2c(c1)C(C(=O)OC)C(c1ccc(OC)c(OC)c1)O2` (stereo unspecified) was tested, and the GI50 (HOP-92) was 55.8 µM (inactive) and > 88.3 µM (inactive), the GI50 (IGROV-1) was 2.27 µM (inactive) and the GI50 (RXF 393) was 4.94 µM (inactive). The GI50 (SNB-75) was 1.95 µM (inactive), the GI50 (TK-10) was > 100 µM (inactive) and the GI50 (UACC-257) was > 100 µM (inactive).
In the case of `OCC1OC(c2ccccc2)CC1O` (stereo unspecified), the GI50 (786-0) is reported as > 100 µM (inactive), the GI50 (A498) is reported as > 100 µM (inactive) and the GI50 (A549) is reported as > 100 µM (inactive). The GI50 (ACHN) was > 100 µM (inactive), the GI50 (CAKI-1) was > 100 µM (inactive) and the GI50 (CCRF-CEM) was > 100 µM (inactive). For the same molecule, the GI50 (COLO 205) was > 100 µM (inactive), the GI50 (DU-145) was > 100 µM (inactive) and the GI50 (EKVX) was > 100 µM (inactive). For the same molecule, the GI50 (HCT-116) was > 100 µM (inactive), the GI50 (HCT-15) was greater than 100 µM and the GI50 (HL-60) was > 100 µM (inactive). For the same molecule, the GI50 (HT-29) was > 100 µM (inactive), the GI50 (IGROV-1) was > 100 µM (inactive) and the GI50 (K562) was > 100 µM (inactive). The GI50 (KM12) was > 100 µM (inactive), the GI50 (LOX IMVI) was > 100 µM (inactive) and the GI50 (M14) was > 100 µM (inactive). The GI50 (MCF7) was > 100 µM (inactive), the GI50 (MDA-MB-231) was > 100 µM (inactive) and the GI50 (MDA-MB-435) was > 100 µM (inactive). For the same molecule, the GI50 (MOLT-4) was > 100 µM (inactive), the GI50 (NCI-H226) was > 100 µM (inactive) and the GI50 (NCI-H460) was > 100 µM (inactive). The GI50 (NCI/ADR-RES) was > 100 µM (inactive), the GI50 (OVCAR-3) was > 100 µM (inactive) and the GI50 (OVCAR-4) was > 100 µM (inactive). The GI50 (OVCAR-5) was > 100 µM (inactive), the GI50 (OVCAR-8) was > 100 µM (inactive) and the GI50 (RXF 393) was > 100 µM (inactive). The GI50 (SF-295) was > 100 µM (inactive), the GI50 (SF-539) was > 100 µM (inactive) and the GI50 (SK-MEL-28) was > 100 µM (inactive). For the same molecule, the GI50 (SK-MEL-2) was > 100 µM (inactive), the GI50 (SK-MEL-5) was > 100 µM (inactive) and the GI50 (SK-OV-3) was > 100 µM (inactive). For the same molecule, the GI50 (SN12C) was > 100 µM (inactive), the GI50 (SNB-19) was > 100 µM (inactive) and the GI50 (SNB-75) was > 100 µM (inactive). For the same molecule, the GI50 (SR) was > 100 µM (inactive), the GI50 (SW-620) was > 100 µM (inactive) and the GI50 (TK-10) was > 100 µM (inactive). The GI50 (U-251) was > 100 µM (inactive), the GI50 (UACC-257) was > 100 µM (inactive) and the GI50 (UACC-62) was > 100 µM (inactive). The GI50 (UO-31) was > 100 µM (inactive).
In the case of `NCCCNOCCCN`, the GI50 (786-0) is reported as > 100 µM (inactive), the GI50 (A498) is reported as > 100 µM (inactive) and the GI50 (A549) is reported as > 100 µM (inactive). For the same molecule, the GI50 (ACHN) was > 100 µM (inactive), the GI50 (CAKI-1) was > 100 µM (inactive) and the GI50 (COLO 205) was > 100 µM (inactive). The GI50 (DU-145) was > 100 µM (inactive), the GI50 (HCC 2998) was > 100 µM (inactive) and the GI50 (HCT-116) was > 100 µM (inactive). The GI50 (HCT-15) was greater than 100 µM, the GI50 (HOP-62) was > 100 µM (inactive) and the GI50 (HOP-92) was 37.8 µM (inactive). For the same molecule, the GI50 (HT-29) was > 100 µM (inactive), the GI50 (K562) was > 100 µM (inactive) and the GI50 (KM12) was > 100 µM (inactive). For the same molecule, the GI50 (M14) was > 100 µM (inactive), the GI50 (MCF7) was > 100 µM (inactive) and the GI50 (MDA-MB-231) was > 100 µM (inactive). For the same molecule, the GI50 (MDA-MB-435) was > 100 µM (inactive), the GI50 (MDA-N) was > 100 µM (inactive) and the GI50 (MOLT-4) was > 100 µM (inactive). The GI50 (Malme-3M) was > 100 µM (inactive), the GI50 (NCI-H23) was > 100 µM (inactive) and the GI50 (NCI-H460) was > 100 µM (inactive). The GI50 (NCI-H522) was > 100 µM (inactive), the GI50 (NCI/ADR-RES) was > 100 µM (inactive) and the GI50 (OVCAR-3) was > 100 µM (inactive). For the same molecule, the GI50 (OVCAR-4) was > 100 µM (inactive), the GI50 (OVCAR-5) was > 100 µM (inactive) and the GI50 (OVCAR-8) was > 100 µM (inactive). For the same molecule, the GI50 (PC-3) was > 100 µM (inactive), the GI50 (RPMI-8226) was > 100 µM (inactive) and the GI50 (RXF 393) was > 100 µM (inactive). The GI50 (SF-268) was > 100 µM (inactive), the GI50 (SF-295) was > 100 µM (inactive) and the GI50 (SF-539) was > 100 µM (inactive). The GI50 (SK-MEL-28) was > 100 µM (inactive), the GI50 (SK-MEL-2) was > 100 µM (inactive) and the GI50 (SK-MEL-5) was > 100 µM (inactive). For the same molecule, the GI50 (SK-OV-3) was > 100 µM (inactive), the GI50 (SN12C) was > 100 µM (inactive) and the GI50 (SNB-19) was > 100 µM (inactive). The GI50 (SR) was 2.26 µM (inactive), the GI50 (SW-620) was > 100 µM (inactive) and the GI50 (T47D) was > 100 µM (inactive). The GI50 (TK-10) was > 100 µM (inactive), the GI50 (U-251) was 43.7 µM (inactive) and the GI50 (UACC-62) was > 100 µM (inactive). For the same molecule, the GI50 (UO-31) was > 100 µM (inactive).
